Measured values taken from patent EP1001770B1, “TAZAROTENE AND UVB PHOTOTHERAPY TREATMENT FOR PSORIASIS” (ALLERGAN, INC., priority 1997, dated 1998).

How the values were obtained:
[1] = Same clinical study: adverse events and tolerability; assay type: in vivo, humans
Description: (§1) The Study objective was to assess safety and efficacy of pre-treatment with Tazarotene 0.1% gel and UVB phototherapy in comparison with the Tazarotene vehicle (placebo) and UVB phototherapy and UVB phototherapy, alone, for 10 weeks. During UVB phototherapy, topical agents were applied three times weekly to the target lesion by the phototherapy nurse. The study was a multicenter, investigator-masked study including 60 subjects and 120 target lesions. During the two-week pre-UVB phototherapy period the patients were randomly assigned to receive two of the following treatments: Tazarotene 0.1% gel once a day; vehicle gel once a day; or no treatment. The topical agents were applied once daily. Prior to UVB therapy, the minimal erythemal dose (MED) was assessed using a range of 20 mJoules/cm^2 up to 100 mJoules/cm^2. Initial starting UVB dose is 25% of MED. If MED is immeasurable, starting dose is 25 mJoules/cm^2. During the ten-week UVB phototherapy period the patients were treated with UVB therapy three times a week and topical therapy three times weekly (0.1% Tazarotene gel, vehicle gel, or no treatment) administered by the phototherapy nurse after UVB exposure. Study population was as follows: male or non-reproductive female; 18 years or older; stable plaque psoriasis; two bilaterally symmetrical plaques accessible to phototherapy; not exceeding 50% of TBS; baseline plaque elevation of at least four (moderate, in 0-8 scoring system); no oral retinoid within two months; no excessive vitamin A intake; no oral psoriatic therapy (other than retinoid) or PUVA within one month; no UVB within two weeks; no significant systemic disease or immunosuppression. The UVB exposure was increased until either improvement in psoriasis was noted or MED was reached. If one target lesion reached MED earlier than the other, a photo-opaque covering was applied to the former so the latter site could still be treated with a higher dose of UVB irradiation. If both target lesions cleared, UVB was discontinued. […] The following evaluation criteria was used: • Efficacy Variable • Plaque elevation, scaling, erythema: • Grading Scale • 0 = none, 2= mild, 4=moderate, 6=severe, 8=very severe (with whole-point increments (1, 3, 5, 7) serving as mid-points) • Global response to treatment • Total cumulative UVB exposure (mJoules/cm^2)
The following adverse events were reported during the study: […]

[2] = tested on: stable plaque psoriasis; assay: Clinical study of Tazarotene 0.1% gel plus UVB phototherapy versus vehicle plus UVB or UVB alone: efficacy on target lesions; assay type: in vivo, humans
Description: as §1
Treatment success is defined as moderate response or better.

[3] = adverse events reported during the study (count), with UVB phototherapy

## CCOC(=O)c1ccc(C#Cc2ccc3c(c2)C(C)(C)CCS3)nc1 [Tazarotene]
[1]; [3]
  Burning sensation: 1
  Itching: 1
  Lesional irritation: 0
  Perilesional irritation: 2
  Perilesional tenderness: 0
[1]; all reported adverse events
  severity of adverse events: mild
[2]; Figure 1, Tazarotene plus UVB compared with UVB treatment alone
  reduction in plaque: more effective
[2]; Figure 2, Tazarotene plus UVB compared with UVB treatment alone
  reduction in scaling: more effective
[2]; Figure 3, Tazarotene plus UVB compared with UVB treatment alone
  reduction in erythema: more effective
[2]; Figure 4, Tazarotene and UVB phototherapy, by day 81, success = moderate response or better
  treatment success rate: 100%
[2]; Figure 5, Tazarotene and UVB compared with UVB alone or UVB with vehicle (placebo)
  reductions in plaque: greater
[2]; Figure 6, Tazarotene and UVB compared with UVB alone or UVB with vehicle (placebo)
  reductions in scaling: greater
[2]; Figure 7, Tazarotene and UVB compared with UVB alone or UVB with vehicle (placebo)
  reductions in erythema: greater
[2]; Figure 8, Tazarotene and UVB treatment, at 81 days
  success rate: 100%
[2]; Figure 8, Tazarotene and UVB, at day 53
  success: about 90%
[2]; Tazarotene and UVB compared with vehicle and UVB
  time to reach treatment success: more quickly
[2]; Tazarotene and UVB compared with vehicle and UVB or UVB alone
  overall effectiveness in treating psoriasis: more effective
